How the values were obtained:
ovarian cancer A2780 = experiment: Cell biological activity detection (CyQuant, 72 hours), A2780; format: cell-based, human; settings: A2780 cells, incubation for 72 hours
Procedure, shortened: (§1)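 A2780 and HCC70 cells seeded at 2000/well in RPMI 1640 + 10% FBS, treated next day with 9-point compound dilutions (top 10 μM, 1:4; 0.2% DMSO) for 72 h at 37 °C. Cell number read by CyQuant Direct nucleic acid stain (ex 488 nm); IC50 from dose–response fit.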

[1] = test system: human breast cancer cells HCC70; experiment: Cell biological activity detection (CyQuant, 72 hours), HCC70; format: cell-based; settings: incubation for 72 hours
Procedure, shortened: as §1

CDK2/cyclinE1 complex = CDK2/cyclinE1 complex (Homo sapiens, UniProt P24941); experiment: In-vitro enzymatic inhibitory activity testing, CDK2 inhibition assay (Caliper EZ Reader II); format: biochemical; settings: CDK2/cyclinE1 0.5 nM, 180 min at 27° C.
Procedure, shortened: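 CDK2/cyclinE1 (0.5 nM) phosphorylated 5-FAM-CDK7tide (2 μM) in MES buffer pH 6.5 with MgCl2, Tween 20 and BSA. Substrate and product were separated electrophoretically on a Caliper EZ Reader II. IC50 values came from nonlinear dose-response fits.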

[2] = target: T1, CDK12 (aa686-1082)/cyclinK complex (Homo sapiens, UniProt Q9NYV4); experiment: In-vitro enzymatic inhibitory activity testing, CDK12 inhibition assay (Caliper EZ Reader II); format: biochemical; settings: CDK12/cyclinK 50 nM, 180 min at 27° C.; read-out: CDK12 IC50
T1 construct: A CDK12 (aa686-1082)/cyclinK complex (50 nM)
Procedure, shortened: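 Caliper EZ Reader II mobility-shift separation of 5-FAM-CDK9tide substrate (2 μM) from phosphoproduct, using 50 nM CDK12 (aa686-1082)/cyclinK in 80 mM MES pH 6.5, 10 mM MgCl2, 0.01% Tween 20, 50 ug/mL BSA. Compound pre-incubated 10 min with enzyme, then substrate/ATP added for 180 min at 27° C; EDTA stop. IC50 by nonlinear dose-response regression.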

CDK9/cyclinT1 complex = CDK9/cyclinT1 complex (Homo sapiens, UniProt P50750); experiment: In-vitro enzymatic inhibitory activity testing, CDK9 inhibition assay (Caliper EZ Reader II); format: biochemical; settings: CDK9/cyclinT1 8 nM, 180 min at 27° C.
Procedure, shortened: (§2)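 Enzyme preincubated 10 min with compound, then peptide substrate plus ATP added in 80 mM MES pH 6.5, 10 mM MgCl2 buffer; 180 min at 27 °C, stopped with EDTA.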

[3] = target: CDK7/cyclinH/MAT1 complex (Homo sapiens, UniProt P50613); experiment: In-vitro enzymatic inhibitory activity testing, CDK7 inhibition assay (Caliper EZ Reader II); format: biochemical; settings: CDK7/cyclinH/MAT1 6 nM, 180 min at 27° C.
Procedure, shortened: as §2

Sequence of CDK9/cyclinT1 complex (P50750 whole entry, species assumed): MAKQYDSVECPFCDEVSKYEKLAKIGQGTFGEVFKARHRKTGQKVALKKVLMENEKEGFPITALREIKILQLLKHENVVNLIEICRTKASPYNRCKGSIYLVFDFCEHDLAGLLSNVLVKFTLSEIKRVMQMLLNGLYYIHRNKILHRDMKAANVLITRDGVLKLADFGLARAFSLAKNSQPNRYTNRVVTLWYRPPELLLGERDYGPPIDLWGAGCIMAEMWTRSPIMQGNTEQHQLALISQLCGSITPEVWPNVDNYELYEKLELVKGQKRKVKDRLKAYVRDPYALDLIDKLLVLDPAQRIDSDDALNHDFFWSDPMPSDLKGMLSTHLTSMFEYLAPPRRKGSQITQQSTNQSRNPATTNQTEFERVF
Sequence of CDK9/cyclinT1 complex (O60563 whole entry partner, species assumed): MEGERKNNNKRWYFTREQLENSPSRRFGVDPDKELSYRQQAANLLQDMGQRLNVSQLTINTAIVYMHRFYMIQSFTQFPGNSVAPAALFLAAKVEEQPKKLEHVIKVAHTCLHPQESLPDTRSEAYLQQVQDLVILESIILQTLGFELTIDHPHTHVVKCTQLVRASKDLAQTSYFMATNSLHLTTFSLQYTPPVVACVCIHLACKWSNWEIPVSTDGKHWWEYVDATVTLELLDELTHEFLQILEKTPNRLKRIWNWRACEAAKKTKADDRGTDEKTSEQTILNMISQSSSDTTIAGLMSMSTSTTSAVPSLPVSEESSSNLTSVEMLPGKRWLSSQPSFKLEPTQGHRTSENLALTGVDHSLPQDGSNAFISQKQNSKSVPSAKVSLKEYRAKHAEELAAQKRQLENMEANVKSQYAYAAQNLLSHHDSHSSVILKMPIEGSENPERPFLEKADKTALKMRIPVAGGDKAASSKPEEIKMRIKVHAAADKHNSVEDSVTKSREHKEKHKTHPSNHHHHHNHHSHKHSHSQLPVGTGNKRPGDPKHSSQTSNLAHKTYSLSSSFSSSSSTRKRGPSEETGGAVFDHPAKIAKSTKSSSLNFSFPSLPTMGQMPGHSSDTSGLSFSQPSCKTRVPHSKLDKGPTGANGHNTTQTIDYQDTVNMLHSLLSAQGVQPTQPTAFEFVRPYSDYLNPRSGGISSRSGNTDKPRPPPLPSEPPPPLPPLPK
T1 sequence (Q9NYV4 686-1082, species assumed): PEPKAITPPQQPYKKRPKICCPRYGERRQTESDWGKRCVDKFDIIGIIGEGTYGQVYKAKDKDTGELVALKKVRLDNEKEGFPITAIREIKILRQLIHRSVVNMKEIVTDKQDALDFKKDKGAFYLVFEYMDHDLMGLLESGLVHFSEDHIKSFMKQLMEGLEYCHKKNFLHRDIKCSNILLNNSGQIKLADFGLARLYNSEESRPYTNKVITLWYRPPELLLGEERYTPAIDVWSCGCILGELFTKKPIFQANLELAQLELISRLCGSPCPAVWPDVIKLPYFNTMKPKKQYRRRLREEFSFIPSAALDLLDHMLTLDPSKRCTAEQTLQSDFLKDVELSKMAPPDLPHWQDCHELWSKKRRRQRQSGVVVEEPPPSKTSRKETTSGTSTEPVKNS
T1 sequence (O75909 whole entry partner, species assumed, the tested form may be a part): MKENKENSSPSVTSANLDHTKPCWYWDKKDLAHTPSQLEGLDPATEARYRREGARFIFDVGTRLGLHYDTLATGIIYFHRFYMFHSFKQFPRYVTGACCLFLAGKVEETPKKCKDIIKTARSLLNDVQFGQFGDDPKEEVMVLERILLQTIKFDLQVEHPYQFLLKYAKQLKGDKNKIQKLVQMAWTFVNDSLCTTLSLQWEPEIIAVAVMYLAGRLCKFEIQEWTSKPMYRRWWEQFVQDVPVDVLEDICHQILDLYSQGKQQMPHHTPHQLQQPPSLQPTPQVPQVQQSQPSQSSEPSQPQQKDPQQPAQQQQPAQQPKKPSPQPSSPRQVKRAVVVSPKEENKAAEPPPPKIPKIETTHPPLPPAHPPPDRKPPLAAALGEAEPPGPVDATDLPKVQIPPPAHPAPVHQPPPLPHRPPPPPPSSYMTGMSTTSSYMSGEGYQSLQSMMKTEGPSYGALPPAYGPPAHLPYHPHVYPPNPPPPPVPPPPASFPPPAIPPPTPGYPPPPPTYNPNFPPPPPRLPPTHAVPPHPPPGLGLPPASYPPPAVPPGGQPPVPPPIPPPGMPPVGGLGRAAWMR
Sequence of CDK7/cyclinH/MAT1 complex (P50613 whole entry, species assumed): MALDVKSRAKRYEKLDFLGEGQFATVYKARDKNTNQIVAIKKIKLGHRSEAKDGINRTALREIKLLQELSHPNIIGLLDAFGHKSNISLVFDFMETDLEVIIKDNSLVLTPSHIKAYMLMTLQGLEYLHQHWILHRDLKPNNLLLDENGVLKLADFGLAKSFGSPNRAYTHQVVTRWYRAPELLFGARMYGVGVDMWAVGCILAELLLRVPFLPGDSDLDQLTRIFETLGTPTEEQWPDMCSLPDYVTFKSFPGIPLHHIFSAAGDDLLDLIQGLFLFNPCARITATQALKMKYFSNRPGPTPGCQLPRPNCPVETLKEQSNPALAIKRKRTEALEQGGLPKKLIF
Sequence of CDK7/cyclinH/MAT1 complex (P51946 whole entry partner, species assumed): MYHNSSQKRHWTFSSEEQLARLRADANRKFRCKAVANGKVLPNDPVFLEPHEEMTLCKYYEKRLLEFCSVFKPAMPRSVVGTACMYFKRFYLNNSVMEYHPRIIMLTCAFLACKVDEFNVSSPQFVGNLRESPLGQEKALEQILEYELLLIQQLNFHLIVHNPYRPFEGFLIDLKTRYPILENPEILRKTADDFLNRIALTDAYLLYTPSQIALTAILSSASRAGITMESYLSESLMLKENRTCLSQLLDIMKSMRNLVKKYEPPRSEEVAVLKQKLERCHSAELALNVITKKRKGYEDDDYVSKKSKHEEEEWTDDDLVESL
Sequence of CDK7/cyclinH/MAT1 complex (P51948 whole entry partner, species assumed): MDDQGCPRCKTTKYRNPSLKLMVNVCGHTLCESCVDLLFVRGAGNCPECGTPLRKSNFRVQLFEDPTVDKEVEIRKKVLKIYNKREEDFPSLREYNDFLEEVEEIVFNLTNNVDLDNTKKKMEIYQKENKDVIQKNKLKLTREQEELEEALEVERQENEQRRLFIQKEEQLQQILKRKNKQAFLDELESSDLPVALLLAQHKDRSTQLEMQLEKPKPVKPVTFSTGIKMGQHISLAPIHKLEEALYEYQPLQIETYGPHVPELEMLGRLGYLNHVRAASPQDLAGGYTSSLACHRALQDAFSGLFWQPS

| Structure (SMILES) | IC50 (ovarian cancer A2780; Homo sapiens, A2780, 72 h) [µM] | IC50 ([1]; Homo sapiens, HCC70, 72 h) [µM] | IC50 (CDK2/cyclinE1 complex) [µM] | IC50 [2] [µM] | IC50 (CDK9/cyclinT1 complex) [µM] | IC50 [3] [µM] | IC50 [1] [µM] | IC50 (ovarian cancer A2780) [µM] |
| --- | --- | --- | --- | --- | --- | --- | --- | --- |
| FC(F)(F)c1cnc(NC2C3CNCC32)nc1-c1c[nH]c2nc(N3CCOCC3)ccc12 (stereo not drawn) [Compound 46, N-(4-(6-morpholinyl-1H-pyrrolo[2,3-b]pyridin-3-yl)-5-(trifluoromethyl)pyrimidin-2-yl)-3-azabicyclo[3.1.0]n-hexan-6-amine] | 0.2 to 5 | 0.2 to 5 | 5 to 50 | 5 to 50 | 5 to 50 | 0.2 to 5 | – | – |
| CC[C@](C)(CO)Nc1ncc(C(F)(F)F)c(-c2c[nH]c3c(P(C)(C)=O)cccc23)n1 [Compound 161, (R)-(3-(2-((1-hydroxy-2-methylbutan-2-yl)amino)-5-(trifluoromethyl)pyrimidin-4-yl)-1H-indole-7-yl)dimethylphosphine oxide] | 0.2 to 5 | 0.2 to 5 | 5 to 50 | > 50 | > 50 | < 0.02 | – | – |
| CP(C)(=O)c1cccc2c(-c3nc(NCC(O)C(F)(F)F)ncc3C(F)(F)F)c[nH]c12 (stereo not drawn) [Compound 145, Dimethyl(3-(2-((3,3,3-trifluoro-2-hydroxypropyl)amino)-5-(trifluoromethyl)pyrimidin-4-yl)-1H-indole-7-yl)phosphine oxide] | 0.02 to 0.2 | 0.02 to 0.2 | > 50 | > 50 | > 50 | 0.02 to 0.2 | – | – |
| CP(C)(=O)c1cccc2c(-c3nc(NCC4(CO)CC4)ncc3C(F)(F)F)c[nH]c12 [Compound 160] | 0.2 to 5 | 0.2 to 5 | 5 to 50 | > 50 | > 50 | 0.02 to 0.2 | – | – |
| FC(F)(F)c1cnc(NC2CCCNCC2)nc1-c1c[nH]c2nc(N3CCOCC3)ccc12 (single isomer, unassigned) [Compound 48] | 0.2 to 5 | 0.2 to 5 | 0.2 to 5 | 0.2 to 5 | 5 to 50 | 0.02 to 0.2 | – | – |
| CC1(C)COCC(Nc2ncc(C(F)(F)F)c(-c3c[nH]c4nc(C#N)ccc34)n2)CN1 (single isomer, unassigned) [Compound 63] | 0.2 to 5 | 0.2 to 5 | > 50 | 5 to 50 | > 50 | 0.02 to 0.2 | – | – |
| CP(C)(=O)c1cccc2c(-c3nc(NC4(CO)CCCC4)ncc3C(F)(F)F)c[nH]c12 [Compound 116, (3-(2-((1-(hydroxymethyl)cyclopentyl)amino)-5-(trifluoromethyl)pyrimidin-4-yl)-1H-indole-7-yl)dimethylphosphine oxide] | 0.02 to 0.2 | 0.02 to 0.2 | 5 to 50 | > 50 | > 50 | 0.02 to 0.2 | – | – |
| CP(C)(=O)c1cccc2c(-c3nc(NCC(O)C(F)(F)F)ncc3C(F)(F)F)c[nH]c12 (single isomer, unassigned) [Compound 146] | 0.02 to 0.2 | – | 5 to 50 | > 50 | > 50 | < 0.02 | 0.02 to 0.2 | – |
| CP(C)(=O)c1cccc2c(-c3nc(NCC4(O)CCOC4)ncc3C(F)(F)F)c[nH]c12 (single isomer, unassigned) [Compound 122] | – | – | 5 to 50 | > 50 | > 50 | 0.02 to 0.2 | 0.02 to 0.2 | 0.2 to 5 |
| CC(C)[C@@H](CO)Nc1ncc(C(F)(F)F)c(-c2c[nH]c3c(P(C)(C)=O)cccc23)n1 [Compound 115, (S)-(3-(2-((1-hydroxy-3-methylbutan-2-yl)amino)-5-(trifluoromethyl)pyrimidin-4-yl)-1H-indole-7-yl)dimethylphosphine oxide] | 0.02 to 0.2 | 0.02 to 0.2 | 5 to 50 | > 50 | > 50 | 0.02 to 0.2 | – | – |
| C[C@@H](CO)Nc1ncc(C(F)(F)F)c(-c2c[nH]c3nc(C4=CCOCC4)ccc23)n1 [Compound 181, (S)-2-((4-(6-(3,6-dihydro-2H-pyran-4-yl)-1H-pyrrolo[2,3-b]pyridin-3-yl)-5-(trifluoromethyl)pyrimidin-2-yl)amino)propan-1-ol] | 0.02 to 0.2 | 0.2 to 5 | 0.2 to 5 | 5 to 50 | > 50 | 0.02 to 0.2 | – | – |
| C[C@H]1COCCN1c1ccc2c(-c3nc(N[C@H]4CC[C@@H](N)C4)ncc3C(F)(F)F)c[nH]c2n1 [Compound 68, (1S,3R)—N1-(4-(6-((S)-3-methylmorpholinyl)-1H-pyrrolo[2,3-b]pyridin-3-yl)-5-(trifluoromethyl)pyrimidin-2-yl)cyclopentan-1,3-diamine] | 0.2 to 5 | 0.2 to 5 | 5 to 50 | 5 to 50 | 5 to 50 | 0.02 to 0.2 | – | – |
| CP(C)(=O)c1cccc2c(-c3nc(NCC(O)C(F)F)ncc3C(F)(F)F)c[nH]c12 (single isomer, unassigned) [Compound 124] | – | 0.02 to 0.2 | 5 to 50 | > 50 | > 50 | < 0.02 | – | 0.02 to 0.2 |
| FC(F)(F)c1cnc(NC2COC3(CCCNC3)C2)nc1-c1c[nH]c2nc(N3CCOCC3)ccc12 (stereo not drawn) [Compound 50, N-(4-(6-morpholinyl-1H-pyrrolo[2,3-b]pyridin-3-yl)-5-(trifluoromethyl)pyrimidin-2-yl)-1-oxa-7-azaspiro[4.5]decan-3-amine] | 0.2 to 5 | 0.2 to 5 | 5 to 50 | 5 to 50 | > 50 | 0.2 to 5 | – | – |
| CP(C)(=O)c1cccc2c(-c3nc(NCC(O)C(F)F)ncc3C(F)(F)F)c[nH]c12 (single isomer, unassigned) [Compound 125] | – | – | 5 to 50 | > 50 | > 50 | 0.02 to 0.2 | 0.02 to 0.2 | 0.2 to 5 |
| FC(F)(F)c1cnc(N[C@@H]2CCC23CNC3)nc1-c1c[nH]c2nc(N3CCOCC3)ccc12 [Compound 59, (R)—N-(4-(6-morpholinyl-1H-pyrrolo[2,3-b]pyridin-3-yl)-5-(trifluoromethyl)pyrimidin-2-yl)-2-azaspiro[3.3]heptan-5-amine] | 0.02 to 0.2 | 0.02 to 0.2 | 5 to 50 | > 50 | 5 to 50 | < 0.02 | – | – |
| CC1(C)COCC(Nc2ncc(C(F)(F)F)c(-c3c[nH]c4c(P(C)(C)=O)cccc34)n2)CN1 (single isomer, unassigned) [Compound 92, (3-(2-((3,3-dimethyl-1,4-oxazepan-6-yl)amino)-5-(trifluoromethyl)pyrimidin-4-yl)-1H-indole-7-yl)dimethylphosphine oxide] | – | – | 5 to 50 | 5 to 50 | 5 to 50 | < 0.02 | 0.02 to 0.2 | < 0.02 |
| CN(C)CC1CCCC1Nc1ncc(C(F)(F)F)c(-c2c[nH]c3c(P(C)(C)=O)cccc23)n1 (single isomer, unassigned) [Compound 135] | < 0.02 | < 0.02 | 0.2 to 5 | 0.2 to 5 | 5 to 50 | < 0.02 | – | – |
| CC1(C)COC[C@@H](Nc2ncc(C(F)(F)F)c(-c3c[nH]c4nc(C#N)ccc34)n2)CN1 (single isomer, unassigned) [Compound 64] | 0.2 to 5 | 0.2 to 5 | > 50 | 5 to 50 | > 50 | 0.02 to 0.2 | – | – |
| CP(C)(=O)c1cccc2c(-c3nc(NC4(CO)CCOC4)ncc3C(F)(F)F)c[nH]c12 (stereo not drawn) [Compound 117, (3-(2-((3-(hydroxymethyl)tetrahydrofuran-3-yl)amino)-5-(trifluoromethyl)pyrimidin-4-yl)-1H-indole-7-yl)dimethylphosphine oxide] | < 0.02 | < 0.02 | 5 to 50 | > 50 | > 50 | < 0.02 | – | – |
| CP(C)(=O)c1cccc2c(-c3nc(NCC(O)C(F)(F)F)ncc3C(F)(F)F)c[nH]c12 (single isomer, unassigned) [Compound 147] | – | – | > 50 | > 50 | > 50 | 0.02 to 0.2 | 0.2 to 5 | 0.02 to 0.2 |
| CP(C)(=O)c1cccc2c(-c3nc(NCC4(O)CCC4)ncc3C(F)(F)F)c[nH]c12 [Compound 90] | 0.02 to 0.2 | 0.02 to 0.2 | 5 to 50 | > 50 | 5 to 50 | 0.02 to 0.2 | – | – |
| FC(F)(F)c1cnc(NC2CCC3CNCC32)nc1-c1c[nH]c2nc(N3CCOCC3)ccc12 (single isomer, unassigned) [Compound 57] | – | – | > 50 | > 50 | > 50 | 0.2 to 5 | 0.2 to 5 | 0.2 to 5 |
